Data set [1] is described as follows: Octanol/water partition coefficient, log D of the compound at pH 7.4. Type of data set: physicochemical.
Data set [2] has as its target T1, Diacylglycerol O-acyltransferase 2 (Homo sapiens, UniProt Q96PD7).
T1 sequence (Q96PD7 whole entry): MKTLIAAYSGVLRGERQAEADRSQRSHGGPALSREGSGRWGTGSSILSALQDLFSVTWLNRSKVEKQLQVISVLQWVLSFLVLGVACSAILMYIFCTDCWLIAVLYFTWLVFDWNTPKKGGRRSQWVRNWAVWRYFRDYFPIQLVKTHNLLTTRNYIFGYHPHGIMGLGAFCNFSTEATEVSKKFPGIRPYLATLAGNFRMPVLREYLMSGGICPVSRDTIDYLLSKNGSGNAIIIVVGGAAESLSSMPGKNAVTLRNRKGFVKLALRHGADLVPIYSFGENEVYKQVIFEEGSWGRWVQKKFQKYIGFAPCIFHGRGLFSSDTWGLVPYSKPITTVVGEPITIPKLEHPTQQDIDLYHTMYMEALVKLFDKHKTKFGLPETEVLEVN
Description: Inhibition of human DGAT2 by liquid scintillography.

Data set [3] has as its target T2, Sterol O-acyltransferase 2 (Homo sapiens, UniProt O75908).
T2 sequence (O75908 whole entry): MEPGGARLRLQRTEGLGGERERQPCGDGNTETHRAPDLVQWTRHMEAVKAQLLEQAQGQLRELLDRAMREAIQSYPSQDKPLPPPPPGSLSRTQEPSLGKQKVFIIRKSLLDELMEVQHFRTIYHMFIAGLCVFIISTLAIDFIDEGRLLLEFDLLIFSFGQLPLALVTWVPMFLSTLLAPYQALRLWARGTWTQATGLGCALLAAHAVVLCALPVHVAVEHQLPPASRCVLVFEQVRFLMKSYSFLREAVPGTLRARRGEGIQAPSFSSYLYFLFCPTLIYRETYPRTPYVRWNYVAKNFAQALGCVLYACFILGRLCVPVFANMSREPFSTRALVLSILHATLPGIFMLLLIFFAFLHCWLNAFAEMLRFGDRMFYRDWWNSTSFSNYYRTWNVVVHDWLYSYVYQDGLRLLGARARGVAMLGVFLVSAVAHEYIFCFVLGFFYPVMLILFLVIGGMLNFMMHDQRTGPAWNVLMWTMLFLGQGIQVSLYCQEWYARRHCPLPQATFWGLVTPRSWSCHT
Description: Inhibition of human ACAT2 by liquid scintillography.

Data set [4] concerns the target Voltage-gated inwardly rectifying potassium channel KCNH2 (Homo sapiens, UniProt Q12809). Description: Inhibition of human ERG.
Data set [5] concerns the target T3, Fatty-acid amide hydrolase 1 (Homo sapiens, UniProt O00519).
T3 sequence (O00519 whole entry): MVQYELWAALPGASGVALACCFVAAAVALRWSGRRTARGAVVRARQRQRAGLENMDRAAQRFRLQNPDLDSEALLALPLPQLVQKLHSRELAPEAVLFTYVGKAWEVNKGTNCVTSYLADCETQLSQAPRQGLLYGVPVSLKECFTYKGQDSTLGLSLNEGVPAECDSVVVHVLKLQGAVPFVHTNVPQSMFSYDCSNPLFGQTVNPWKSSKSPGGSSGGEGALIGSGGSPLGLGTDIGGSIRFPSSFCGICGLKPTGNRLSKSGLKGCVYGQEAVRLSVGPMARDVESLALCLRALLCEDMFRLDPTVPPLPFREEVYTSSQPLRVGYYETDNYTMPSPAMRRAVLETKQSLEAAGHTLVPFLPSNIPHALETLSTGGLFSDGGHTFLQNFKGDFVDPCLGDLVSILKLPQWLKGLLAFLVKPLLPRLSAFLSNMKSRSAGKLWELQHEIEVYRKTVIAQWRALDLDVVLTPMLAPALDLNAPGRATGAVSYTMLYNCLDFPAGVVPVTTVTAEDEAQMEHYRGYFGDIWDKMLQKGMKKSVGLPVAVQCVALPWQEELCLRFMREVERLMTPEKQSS
Description: Inhibition of FAAH.

Data set [6] in a line: Terminal half life in human at 1 to 20 mg. Type of data set: ADME, organism-based. Conditions: in vivo, read-out: beta t1/2 (converted).
Data set [7] is described as follows: Volume of distribution in Han-Wistar rat at 5.4 uM/kg, po or 2.7 uM/kg, iv. Type of data set: ADME, organism-based. Conditions: in vivo.
For data set [8], the system named is Rattus norvegicus. Description: Inhibition of plasma triacylglycerol excursion in 14 hrs fasted Han-Wistar rat at administered orally 2 hrs before bolus corn oil administration measured 1.5 hrs post corn oil challenge by oral lipid tolerance test relative to control.
Data set [9] in a line: Half life in Han-Wistar rat at 2.54 to 5.4 uM/kg, po. It counts as ADME, organism-based. Conditions: in vivo.
Data set [10] is described as follows: Fraction unbound in mouse plasma. Type of data set: ADME, cell-free.
Data set [11] in a line: Apparent permeability from apical to basolateral side in MDCK cells at pH 7.4. The following applies: dog.
Data set [12] concerns the target Cytochrome P450 2C9 (Homo sapiens, UniProt P11712). Description: Inhibition of CYP2C9. It counts as ADME.
The target of data set [13] is T4, Cytochrome P450 1A2 (Homo sapiens, UniProt P05177).
T4 sequence (P05177 whole entry): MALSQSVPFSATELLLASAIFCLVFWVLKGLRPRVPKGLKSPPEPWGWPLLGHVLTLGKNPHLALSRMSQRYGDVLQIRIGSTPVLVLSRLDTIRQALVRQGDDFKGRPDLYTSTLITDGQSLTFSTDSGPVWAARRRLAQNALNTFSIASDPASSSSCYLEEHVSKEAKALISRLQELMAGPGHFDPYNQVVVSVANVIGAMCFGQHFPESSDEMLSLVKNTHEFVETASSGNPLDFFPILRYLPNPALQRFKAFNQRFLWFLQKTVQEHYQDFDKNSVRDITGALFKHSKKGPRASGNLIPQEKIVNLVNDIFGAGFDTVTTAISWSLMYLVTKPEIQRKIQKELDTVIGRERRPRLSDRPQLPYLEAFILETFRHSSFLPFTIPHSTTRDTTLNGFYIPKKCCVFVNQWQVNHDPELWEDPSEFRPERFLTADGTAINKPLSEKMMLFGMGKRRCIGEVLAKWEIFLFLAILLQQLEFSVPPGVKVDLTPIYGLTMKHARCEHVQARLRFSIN
Description: Inhibition of CYP1A2. It counts as ADME.

Data set [14] is described as follows: Intrinsic clearance in rat hepatocytes assessed as parent compound disappearance at 1 uM per 10^6 cells. Type of data set: ADME, cell-based, Hepatocyte. Conditions: read-out: CLH.

What is called logD is the decadic logarithm of the distribution of all forms, ionised or not, between an organic phase and buffer at a given pH. Read a low logD as lower lipophilicity. By IC50 is commonly meant the point on the concentration scale where inhibition reaches its midpoint. A word on the fraction unbound: it is free concentration divided by total concentration. A higher fraction unbound goes with much free substance. By Papp A→B is commonly meant how fast a substance crosses the layer from the apical side.

Cytochrome P450 2C9, sequence (P11712 whole entry): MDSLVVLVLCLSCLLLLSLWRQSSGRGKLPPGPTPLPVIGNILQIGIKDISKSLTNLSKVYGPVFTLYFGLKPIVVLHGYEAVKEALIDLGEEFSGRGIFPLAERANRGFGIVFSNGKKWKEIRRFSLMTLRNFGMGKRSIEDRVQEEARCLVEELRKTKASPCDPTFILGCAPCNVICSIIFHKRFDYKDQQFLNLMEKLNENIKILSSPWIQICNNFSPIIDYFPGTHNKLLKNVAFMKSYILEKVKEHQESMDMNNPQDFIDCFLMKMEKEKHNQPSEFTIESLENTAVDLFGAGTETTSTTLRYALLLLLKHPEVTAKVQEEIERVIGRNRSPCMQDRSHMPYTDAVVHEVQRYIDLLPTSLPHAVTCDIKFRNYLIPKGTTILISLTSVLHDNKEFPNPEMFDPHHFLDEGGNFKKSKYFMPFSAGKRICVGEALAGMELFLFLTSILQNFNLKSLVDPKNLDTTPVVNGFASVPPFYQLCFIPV
Voltage-gated inwardly rectifying potassium channel KCNH2, sequence (Q12809 whole entry): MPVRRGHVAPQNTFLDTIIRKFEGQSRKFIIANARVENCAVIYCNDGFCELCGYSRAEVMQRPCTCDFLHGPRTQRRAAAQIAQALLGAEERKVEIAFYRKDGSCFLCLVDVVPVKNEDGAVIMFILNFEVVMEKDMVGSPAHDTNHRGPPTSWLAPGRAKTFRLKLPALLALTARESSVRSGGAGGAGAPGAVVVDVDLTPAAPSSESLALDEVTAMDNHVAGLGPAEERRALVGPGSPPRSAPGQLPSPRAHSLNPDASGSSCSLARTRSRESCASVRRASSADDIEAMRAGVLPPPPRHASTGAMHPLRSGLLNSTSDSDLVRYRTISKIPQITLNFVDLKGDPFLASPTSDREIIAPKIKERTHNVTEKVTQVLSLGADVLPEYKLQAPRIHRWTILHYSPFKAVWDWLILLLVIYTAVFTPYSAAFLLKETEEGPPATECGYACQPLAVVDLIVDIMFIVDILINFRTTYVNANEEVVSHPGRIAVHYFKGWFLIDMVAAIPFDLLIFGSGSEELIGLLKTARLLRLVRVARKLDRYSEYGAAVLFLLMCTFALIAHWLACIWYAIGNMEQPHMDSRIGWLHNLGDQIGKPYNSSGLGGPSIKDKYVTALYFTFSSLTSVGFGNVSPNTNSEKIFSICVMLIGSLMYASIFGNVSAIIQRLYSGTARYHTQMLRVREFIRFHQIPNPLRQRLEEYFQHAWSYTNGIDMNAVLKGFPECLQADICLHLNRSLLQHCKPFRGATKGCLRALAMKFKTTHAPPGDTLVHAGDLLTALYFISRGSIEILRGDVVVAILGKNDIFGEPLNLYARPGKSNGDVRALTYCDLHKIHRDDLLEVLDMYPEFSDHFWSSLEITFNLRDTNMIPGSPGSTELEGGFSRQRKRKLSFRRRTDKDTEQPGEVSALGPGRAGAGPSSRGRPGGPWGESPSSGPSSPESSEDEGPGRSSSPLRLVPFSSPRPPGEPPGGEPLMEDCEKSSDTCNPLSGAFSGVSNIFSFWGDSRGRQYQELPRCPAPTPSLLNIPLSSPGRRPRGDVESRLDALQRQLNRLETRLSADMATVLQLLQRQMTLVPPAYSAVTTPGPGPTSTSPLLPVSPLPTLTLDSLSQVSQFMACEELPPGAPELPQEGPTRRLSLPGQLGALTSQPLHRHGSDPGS

`Cc1nc(C)c(-c2ccc(C3CCC(CC(=O)O)CC3)cc2)nc1C(N)=O` (centres undefined) [AZD-7687] gave a logD in [1] of 0.9. For the same compound, the IC50 in data set [2] is > 300 µM; in data set [3] it was > 10 µM; in [4] it was > 32 µM; in data set [5] it was 3.7 µM; in [8] it was 42 nM; in [12] it was > 30 µM. Further, the IC50 in data set [13] is > 30 µM. Further, the half-life in data set [6] was 540 min; in data set [9], 840 min. In data set [7], the Vd was 0.35 L/kg. In data set [10], this compound gave a fraction unbound of 0.1. Further, the Papp A→B in data set [11] stood at 12 ×10⁻⁶ cm/s. For the same compound, the hepatocyte CLint at 1 µM in data set [14] was < 2 µL/min/1e6 cells.
